Measured values published in article PMC6576746, “Rational discovery of dual-indication multi-target PDE/Kinase inhibitor for precision anti-cancer therapy using structural systems pharmacology” (PLoS Computational Biology, 2019).

How the values were obtained:
Assay in all cases: biochemical
Set-up in all cases: DiscoverX KinomeScan competition binding assay across human kinases; per cent of control at 10 and 100 uM
[1] = target: ACVR1 (Homo sapiens, UniProt Q04771); conditions: competition binding, % of control
Chain of ACVR1 (Q04771 whole entry): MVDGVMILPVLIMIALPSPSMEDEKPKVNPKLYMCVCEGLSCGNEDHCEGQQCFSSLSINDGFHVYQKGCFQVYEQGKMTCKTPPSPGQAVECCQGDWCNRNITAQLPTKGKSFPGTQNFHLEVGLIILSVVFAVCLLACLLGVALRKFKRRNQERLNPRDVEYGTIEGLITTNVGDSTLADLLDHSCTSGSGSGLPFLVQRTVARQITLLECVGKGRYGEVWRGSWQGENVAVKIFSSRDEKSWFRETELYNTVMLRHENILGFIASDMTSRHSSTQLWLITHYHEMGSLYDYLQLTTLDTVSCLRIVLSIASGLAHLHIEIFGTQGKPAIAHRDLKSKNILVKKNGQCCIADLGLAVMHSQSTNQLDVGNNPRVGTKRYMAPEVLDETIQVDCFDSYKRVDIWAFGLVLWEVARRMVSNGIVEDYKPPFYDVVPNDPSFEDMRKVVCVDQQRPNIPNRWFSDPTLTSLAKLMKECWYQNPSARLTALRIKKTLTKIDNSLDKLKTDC
In short: (§1)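 Binding is expressed as %control, normalised between positive and negative control signals. The compound (levosimendan) was tested at 10 μM and 100 μM in the DiscoverX KinomeScan competition binding format against human kinases.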

[2] = target: T1, AMPK-alpha1 (Homo sapiens, UniProt Q13131); conditions: competition binding, % of control; read-out: Percent Control (100 uM Levosimendan)
T1 construct: gene PRKAA1
In short: as §1

[3] = target: CDK2 (Homo sapiens, UniProt P24941); conditions: competition binding, % of control; read-out: Percent Control (100 uM Levosimendan)
In short: as §1

[4] = target: CDK5 (Homo sapiens, UniProt Q00535); conditions: competition binding, % of control; read-out: Percent Control (100 uM Levosimendan)
In short: as §1

[5] = target: CDK8 (Homo sapiens, UniProt P49336); conditions: competition binding, % of control; read-out: Percent Control (100 uM Levosimendan)
Chain of CDK8 (P49336 whole entry): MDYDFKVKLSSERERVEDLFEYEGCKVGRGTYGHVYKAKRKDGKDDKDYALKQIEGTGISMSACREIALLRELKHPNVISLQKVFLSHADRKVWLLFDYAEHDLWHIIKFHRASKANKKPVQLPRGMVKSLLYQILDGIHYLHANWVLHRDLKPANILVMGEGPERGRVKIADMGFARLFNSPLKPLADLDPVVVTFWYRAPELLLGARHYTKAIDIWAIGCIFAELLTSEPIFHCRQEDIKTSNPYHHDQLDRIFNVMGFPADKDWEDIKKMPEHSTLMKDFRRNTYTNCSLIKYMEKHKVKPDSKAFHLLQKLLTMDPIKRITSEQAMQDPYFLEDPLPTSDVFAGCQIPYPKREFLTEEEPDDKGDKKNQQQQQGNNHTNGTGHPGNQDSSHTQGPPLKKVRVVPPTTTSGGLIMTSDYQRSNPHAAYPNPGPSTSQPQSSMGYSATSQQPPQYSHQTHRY
In short: as §1

[6] = target: CDKL2 (Homo sapiens, UniProt Q92772); conditions: competition binding, % of control; read-out: Percent Control (100 uM Levosimendan)
In short: as §1

[7] = target: CHEK2 (Homo sapiens, UniProt O96017); conditions: competition binding, % of control
Chain of CHEK2 (O96017 whole entry): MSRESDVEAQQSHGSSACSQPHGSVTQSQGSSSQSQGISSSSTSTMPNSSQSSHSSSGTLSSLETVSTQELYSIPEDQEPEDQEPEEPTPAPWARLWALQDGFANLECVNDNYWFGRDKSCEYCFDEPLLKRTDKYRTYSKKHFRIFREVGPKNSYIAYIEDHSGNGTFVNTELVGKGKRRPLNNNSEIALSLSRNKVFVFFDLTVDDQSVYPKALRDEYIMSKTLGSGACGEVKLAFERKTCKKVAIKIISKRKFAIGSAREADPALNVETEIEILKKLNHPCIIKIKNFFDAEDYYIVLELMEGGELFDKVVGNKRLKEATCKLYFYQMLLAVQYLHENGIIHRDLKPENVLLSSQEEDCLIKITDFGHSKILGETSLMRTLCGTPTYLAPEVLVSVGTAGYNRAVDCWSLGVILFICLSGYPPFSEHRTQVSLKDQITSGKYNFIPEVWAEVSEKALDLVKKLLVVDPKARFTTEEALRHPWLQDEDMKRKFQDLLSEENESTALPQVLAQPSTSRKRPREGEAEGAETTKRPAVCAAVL
In short: as §1

[8] = target: CIT (Homo sapiens, UniProt O14578); conditions: competition binding, % of control; read-out: Percent Control (100 uM Levosimendan)
In short: as §1

[9] = target: CLK4 (Homo sapiens, UniProt Q9HAZ1); conditions: competition binding, % of control; read-out: Percent Control (100 uM Levosimendan)
In short: as §1

[10] = target: DMPK (Homo sapiens, UniProt Q09013); conditions: competition binding, % of control
Chain of DMPK (Q09013 whole entry): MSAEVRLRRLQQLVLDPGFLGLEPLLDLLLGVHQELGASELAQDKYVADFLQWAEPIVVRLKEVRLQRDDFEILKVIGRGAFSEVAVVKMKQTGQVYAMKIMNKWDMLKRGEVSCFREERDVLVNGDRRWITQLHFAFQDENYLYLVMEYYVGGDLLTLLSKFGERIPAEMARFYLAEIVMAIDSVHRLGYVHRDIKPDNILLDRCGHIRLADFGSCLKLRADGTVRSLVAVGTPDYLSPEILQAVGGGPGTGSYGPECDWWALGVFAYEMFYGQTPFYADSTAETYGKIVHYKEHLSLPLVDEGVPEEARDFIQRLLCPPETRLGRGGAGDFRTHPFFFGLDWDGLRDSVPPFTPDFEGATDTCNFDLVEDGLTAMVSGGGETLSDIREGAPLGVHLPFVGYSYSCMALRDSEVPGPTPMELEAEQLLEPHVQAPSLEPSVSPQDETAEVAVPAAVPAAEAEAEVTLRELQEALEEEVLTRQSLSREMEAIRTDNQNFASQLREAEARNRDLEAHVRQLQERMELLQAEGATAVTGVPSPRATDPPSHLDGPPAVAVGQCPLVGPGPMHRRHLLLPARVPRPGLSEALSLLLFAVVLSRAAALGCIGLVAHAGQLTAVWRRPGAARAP
In short: as §1

[11] = target: T2, IKK-epsilon (Homo sapiens, UniProt Q14164); conditions: competition binding, % of control; read-out: Percent Control (100 uM Levosimendan)
T2 construct: gene IKBKE
In short: as §1

[12] = target: T3, MST3 (Homo sapiens, UniProt Q9Y6E0); conditions: competition binding, % of control; read-out: Percent Control (100 uM Levosimendan)
T3 construct: gene STK24
In short: as §1

[13] = target: NEK7 (Homo sapiens, UniProt Q8TDX7); conditions: competition binding, % of control; read-out: Percent Control (100 uM Levosimendan)
In short: as §1

[14] = target: PIK3CA (Homo sapiens, UniProt P42336); conditions: competition binding, % of control; read-out: Percent Control (100 uM Levosimendan)
In short: as §1

[15] = target: PIK3CA(I800L) (Homo sapiens, UniProt P42336, I800L); conditions: competition binding, % of control; read-out: Percent Control (100 uM Levosimendan)
In short: as §1

[16] = target: STK36 (Homo sapiens, UniProt Q9NRP7); conditions: competition binding, % of control
Chain of STK36 (Q9NRP7 whole entry): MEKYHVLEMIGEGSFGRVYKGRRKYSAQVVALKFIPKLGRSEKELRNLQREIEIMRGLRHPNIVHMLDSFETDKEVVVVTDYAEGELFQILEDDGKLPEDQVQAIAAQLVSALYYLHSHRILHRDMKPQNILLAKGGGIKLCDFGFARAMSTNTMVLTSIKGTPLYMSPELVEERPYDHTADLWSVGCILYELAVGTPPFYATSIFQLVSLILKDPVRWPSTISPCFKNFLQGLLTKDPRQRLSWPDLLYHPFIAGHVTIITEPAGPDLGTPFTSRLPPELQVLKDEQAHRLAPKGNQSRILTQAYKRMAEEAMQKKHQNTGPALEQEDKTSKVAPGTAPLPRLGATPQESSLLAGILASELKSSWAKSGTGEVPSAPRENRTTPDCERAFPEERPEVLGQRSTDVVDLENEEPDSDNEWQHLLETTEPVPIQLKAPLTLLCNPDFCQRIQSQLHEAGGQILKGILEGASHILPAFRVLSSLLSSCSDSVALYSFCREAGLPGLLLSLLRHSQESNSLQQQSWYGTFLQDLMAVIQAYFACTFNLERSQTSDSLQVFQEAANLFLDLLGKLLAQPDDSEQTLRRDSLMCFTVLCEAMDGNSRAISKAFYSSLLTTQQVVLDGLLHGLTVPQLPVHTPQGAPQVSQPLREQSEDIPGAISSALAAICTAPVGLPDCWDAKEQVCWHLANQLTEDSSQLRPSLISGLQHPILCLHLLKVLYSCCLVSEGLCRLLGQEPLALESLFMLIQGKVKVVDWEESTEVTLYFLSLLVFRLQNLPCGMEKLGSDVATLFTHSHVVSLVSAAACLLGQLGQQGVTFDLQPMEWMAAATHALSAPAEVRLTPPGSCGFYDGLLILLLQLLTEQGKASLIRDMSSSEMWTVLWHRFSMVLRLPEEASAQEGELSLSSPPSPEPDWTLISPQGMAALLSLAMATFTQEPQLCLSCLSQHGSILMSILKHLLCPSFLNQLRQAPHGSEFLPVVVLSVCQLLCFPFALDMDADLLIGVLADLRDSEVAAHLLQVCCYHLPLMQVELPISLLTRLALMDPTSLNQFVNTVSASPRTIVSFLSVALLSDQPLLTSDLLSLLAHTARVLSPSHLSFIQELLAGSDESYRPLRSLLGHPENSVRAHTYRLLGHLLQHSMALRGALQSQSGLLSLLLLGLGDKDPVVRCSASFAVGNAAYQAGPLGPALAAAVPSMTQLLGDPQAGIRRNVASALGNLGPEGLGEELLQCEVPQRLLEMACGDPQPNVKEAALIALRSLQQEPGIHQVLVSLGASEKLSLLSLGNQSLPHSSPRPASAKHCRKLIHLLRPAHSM
In short: as §1

[17] = target: TGFBR1 (Homo sapiens, UniProt P36897); conditions: competition binding, % of control
Chain of TGFBR1 (P36897 whole entry): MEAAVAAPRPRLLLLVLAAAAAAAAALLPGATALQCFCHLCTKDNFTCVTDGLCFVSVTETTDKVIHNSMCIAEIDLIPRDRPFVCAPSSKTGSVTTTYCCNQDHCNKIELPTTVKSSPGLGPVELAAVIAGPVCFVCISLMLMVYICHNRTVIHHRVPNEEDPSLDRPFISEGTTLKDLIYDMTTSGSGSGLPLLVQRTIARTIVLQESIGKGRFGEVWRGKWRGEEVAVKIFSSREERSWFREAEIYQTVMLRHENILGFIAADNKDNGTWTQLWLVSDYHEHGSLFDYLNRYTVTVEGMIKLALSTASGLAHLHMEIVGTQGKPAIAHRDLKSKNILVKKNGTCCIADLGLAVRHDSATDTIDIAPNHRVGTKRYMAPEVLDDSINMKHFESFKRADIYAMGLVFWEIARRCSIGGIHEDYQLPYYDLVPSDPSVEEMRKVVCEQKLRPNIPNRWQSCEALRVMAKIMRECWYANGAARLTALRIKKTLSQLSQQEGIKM
In short: as §1

[18] = target: T4, TRKB (Homo sapiens, UniProt Q16620); conditions: competition binding, % of control; read-out: Percent Control (100 uM Levosimendan)
T4 construct: gene NTRK2
T4 sequence (Q16620 whole entry): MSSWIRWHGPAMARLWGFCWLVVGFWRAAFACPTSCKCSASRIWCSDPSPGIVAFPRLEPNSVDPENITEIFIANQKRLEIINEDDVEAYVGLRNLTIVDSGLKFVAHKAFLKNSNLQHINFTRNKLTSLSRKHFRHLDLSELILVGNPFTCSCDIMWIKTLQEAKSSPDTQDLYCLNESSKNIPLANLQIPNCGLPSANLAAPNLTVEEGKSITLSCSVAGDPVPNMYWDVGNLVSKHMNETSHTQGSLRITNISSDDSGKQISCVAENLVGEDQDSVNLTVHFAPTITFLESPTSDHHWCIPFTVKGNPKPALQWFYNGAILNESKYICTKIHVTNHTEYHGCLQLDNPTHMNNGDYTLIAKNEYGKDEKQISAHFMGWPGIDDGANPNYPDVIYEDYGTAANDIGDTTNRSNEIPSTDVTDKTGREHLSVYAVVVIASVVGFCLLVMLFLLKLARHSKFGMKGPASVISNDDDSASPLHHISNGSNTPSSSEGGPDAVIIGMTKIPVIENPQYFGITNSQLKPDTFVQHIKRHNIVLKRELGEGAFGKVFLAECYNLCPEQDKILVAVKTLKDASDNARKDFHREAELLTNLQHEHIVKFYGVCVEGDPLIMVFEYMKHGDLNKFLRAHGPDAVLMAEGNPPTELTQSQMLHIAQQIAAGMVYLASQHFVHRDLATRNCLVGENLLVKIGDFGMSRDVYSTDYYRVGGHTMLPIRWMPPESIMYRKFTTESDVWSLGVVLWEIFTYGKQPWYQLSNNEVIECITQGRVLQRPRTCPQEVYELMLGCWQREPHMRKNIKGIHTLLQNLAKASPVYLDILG
In short: as §1

[19] = target: ULK2 (Homo sapiens, UniProt Q8IYT8); conditions: competition binding, % of control; read-out: Percent Control (100 uM Levosimendan)
In short: as §1

[20] = read-out: Percent Control (10 uM Levosimendan)
[21] = read-out: Percent Control (100 uM Levosimendan)

remaining binding at 10 µM [1, 20]: 55% | remaining binding at 100 µM [1, 21]: 6.5% | remaining binding at 100 µM [2]: 83% | remaining binding at 100 µM [3]: 97% | remaining binding at 100 µM [4]: 100% | remaining binding at 100 µM [5]: 100% | remaining binding at 100 µM [6]: 100% | remaining binding at 10 µM [7, 20]: 41% | remaining binding at 100 µM [7, 21]: 0.65% | remaining binding at 100 µM [8]: 59% | remaining binding at 100 µM [9]: 89% | remaining binding at 10 µM [10, 20]: 100% | remaining binding at 100 µM [10, 21]: 29% | remaining binding at 100 µM [11]: 93% | remaining binding at 100 µM [12]: 96% | remaining binding at 100 µM [13]: 100% | remaining binding at 100 µM [14]: 96% | remaining binding at 100 µM [15]: 83% | remaining binding at 10 µM [16, 20]: 98% | remaining binding at 100 µM [16, 21]: 50% | remaining binding at 10 µM [17, 20]: 89% | remaining binding at 100 µM [17, 21]: 48% | remaining binding at 100 µM [18]: 81% | remaining binding at 100 µM [19]: 56%
Structure (SMILES): C[C@@H]1CC(=O)NN=C1c1ccc(NN=C(C#N)C#N)cc1 [levosimendan]
